# Measurements: patent US5760036A, “Aminediol protease inhibitors” (E. R. Squibb & Sons, Inc., priority 1995, dated 1998)
# Target: T1, HIV protease (Human immunodeficiency virus type 1 group M subtype B, UniProt P04585)
# T1 construct: and purified protease
# Assay: HIV Protease Assay
# Type: biochemical
# Settings: 10 μM inhibitor, 4% DMSO, 450 μM substrate, pH 5.5, 30 minutes at 37° C., RP-HPLC
# Procedure: An HIV protease standard assay was performed in a 60 μl reaction medium containing 50 mM sodium acetate, pH 5.5, 100 μg/ml bovine serum albumen,450 μM substrate (H2 N-Val-Ser-Gln-Asn-(β-naphthyl-alanine)-Pro-Val-Ile-OH), and purified protease. The reaction medium was incubated for 30 minutes at 37° C., quenched by the addition of 140 μl 5% H3 PO4, then analyzed by reverse phase HPLC using UV220 detection. In a typical control assay, 7% of the substrate was hydrolyzed. Aminediol inhibitors of the present invention, listed in the following Table 1, were then employed in the assay, for which purpose they were prepared as a […] solution in DMSO, then diluted to 30 μM with 50 mM sodium acetate/bovine serum albumen. This working stock was then diluted three-fold into the protease reaction medium, for a final concentration of 10 μM inhibitor and 4% DMSO.
row,HIV Protease % Inhibition at 10 μM,SMILES
1,87%,"CC(C)(C)OC(=O)N[C@@H](Cc1ccccc1)[C@H](O)CNC[C@@H](O)[C@H](Cc1ccccc1)NC(=O)C(O)C(F)(F)F (single isomer, unassigned; isomer b) [Compound 272, [1S-[1R*,2S*(2S*,3R*)]]-[2-Hydroxy-1-(phenylmethyl)-3-[[2-hydroxy-4-phenyl-3-[(3.3,3-trifluoro-2-hydroxy-1-oxopropyl)amino]butyl]amino]propyl]carbamic acid,1,1-dimethylethyl ester (isomer B)]"
2,89%,"CC(C)(C)OC(=O)N[C@@H](Cc1ccccc1)[C@H](O)CNC[C@@H](O)[C@H](Cc1ccccc1)NC(=O)C(C)(O)C(F)(F)F (single isomer, unassigned; isomer b) [Compound 294, [1S-[1R*,2S*(2S*,3R*)]]-[2-Hydroxy-3-[2-hydroxy-1-oxo-2-(trifluoromethyl)propyl]amino]-4-phenylbutyl]amino]-1-(phenylmethyl)propyl]carbamic acid, 1,1-dimethylethylester (isomer B)]"
3,28%,"COC(=O)NC(C)(C(=O)N[C@@H](Cc1ccccc1)[C@H](O)CNC[C@@H](O)[C@H](Cc1ccccc1)NC(=O)OC(C)(C)C)C(C)(C)C (single isomer, unassigned; isomer b) [Compound 374, [1S-[1R*,2S*(2S*, 3R*)]]-[1-[[[3-[[3-[[(1,1-Dimethylethoxy)carbonyl]amino]-2-hydroxy-4-phenylbutyl]amino]-2-hydroxy-1-(phenylmethyl)propyl]amino]carbonyl]-1,2-dimethylpropyl]carbamic acid, methyl ester, isomer B]"

# Same assay, conditions: pH 5.5, 10 μM inhibitor, 4% DMSO, 450 μM substrate, pH 5.5, 30 minutes at 37° C., RP-HPLC; read-out: HIV Protease % Inhibition at 10 μM
row,SMILES,inhibition at 10 µM
1,"CC(C)(C)OC(=O)N[C@@H](Cc1ccccc1)[C@H](O)CNCC(C)(O)[C@H](Cc1ccccc1)NC(=O)OC(C)(C)C (stereo partly drawn) [Compound 192, [1S-[1R*,2S*(3R*)]]-[3-[[3-[[(1,1-Dimethylethoxy)carbonyl]amino]-2-hydroxy-2-methyl-4-phenylbutyl]amino]-2-hydroxy-1-(phenylmethyl)propyl]amino]carbamic acid, 1,1-dimethylethyl ester]",85%
2,"CC(C)C[C@H](NC(=O)OC(C)(C)C)C(O)CN(Cc1ccccc1)CC(O)[C@H](CC(C)C)NC(=O)OC(C)(C)C (stereo partly drawn) [Compound 196, (3S,3S')-[[(Phenylmethyl)nitrilo]-bis(2-hydroxy-5-methyl-3,1-hexandiyl)]-biscarbamic acid, bis(1,1-dimethylethyl)ester]",6%
3,"CC(C)(C)OC(=O)N[C@@H](Cc1ccccc1)[C@H](O)CNC[C@@H](O)[C@H](Cc1ccccc1)NC(=O)C(C)(C)C [Compound 269, [1S-[1R*,2S*(2S*,3R*)]]-[3-[[3-[(2,2-Dimethyl-1-oxo-propyl)amino]-2-hydroxy-4-phenylbutyl]amino]-2-hydroxy-1-(phenylmethyl)propyl]carbamic acid, 1,1-dimethylethyl ester]",61%
4,"CC(C)[C@H](NC(=O)OCc1ccccc1)C(=O)N[C@@H](Cc1ccccc1)[C@@H](O)CNC[C@H](O)[C@H](Cc1ccccc1)NC(=O)OC(C)(C)C [Compound 117, [S-[1R*,2R*(2R*,3R*)]]-N-[3-[[3-[[(1,1-Dimethylethoxy)carbonyl]amino]-2-hydroxy-4-phenylbutyl]amino]-2-hydroxy-1-(phenylmethyl)propyl]-N^2-[(phenylmethoxy)-carbonyl]-L-valinamide]",14%
5,"CC(C)(C)OC(=O)N[C@@H](Cc1ccccc1)[C@H](O)CNC[C@@H](O)[C@H](Cc1ccccc1)NC(=O)[C@H](CCCCN)NC(=O)OCc1ccccc1 [Compound 89, [S-[1R*,2S*(2S*,3R*)[[-N-[3-[[3-[[(1,1-Dimethylethoxy)carbonyl]amino]-2-hydroxy-4-phenylbutyl]amino]-2-hydroxy-1-(phenylmethyl)-propyl]-N2-[(phenylmethoxy)carbonyl]-L-lysinamide]",23%
6,"CC(C)(C)OC(=O)NCC(O)[C@H](Cc1ccccc1)NC[C@@H](O)[C@H](Cc1ccccc1)NC(=O)OC(C)(C)C (mixture of isomers) [Compound 188, [3S-[3R*(2S*,3R*)]]-[3-[[3-[[(1,1-Dimethylethoxy)carbonyl]amino]-2-hydroxy-4-phenyl-butyl]amino]-2-hydroxy-4-phenylbutyl]carbamic acid, 1,1-dimethylethyl ester, 2:1 diastereomer mixture]",21%
7,"CC(C)(C)OC(=O)N[C@@H](Cc1ccccc1)C(=O)CNC[C@@H](O)[C@H](Cc1ccccc1)NC(=O)OC(C)(C)C [Compound 193, [1S-[1R*,2S*(3R*)]]-[3-[[3-[[(1,1-Dimethylethoxy)carbonyl]amino]-2-oxo-4-phenylbutyl]amino]-2-hydroxy-1-(phenylmethyl)propyl]carbamic acid, 1,1-dimethylethyl ester]",66%
8,"CC(C)(C)OC(=O)N1CCC[C@H]1[C@H](O)CNC[C@H](O)[C@@H]1CCCN1C(=O)OC(C)(C)C [Compound 8, [S-(R*,R*)]-2-[2-[[[S-(R*,S*)]-2-[1-[(1,1-Dimethylethoxy)carbonyl]-pyrrolidinyl]-2-hydroxyethyl]amino]-hydroxyethyl]-1-pyrrolidine-carboxylic acid, (1,1-dimethylethyl) ester]",2%
9,"CN(C(=O)NC(C)(C)C)[C@@H](Cc1ccccc1)[C@H](O)CNC[C@@H](O)[C@H](Cc1ccccc1)NC(=O)OC(C)(C)C [Compound 136, [1S-[1R*,2S*(2S*,3R*)]]-[3-[[3-[[[(1,1-Dimethylethyl)amino]carbonyl]methylamino]-2-hydroxy-4-phenylbutyl]amino]-2-hydroxy-1-(phenylmethyl))propyl]carbamic acid, 1,1-dimethylethyl ester]",73%

# Now from value to compound:
row,inhibition at 10 µM,SMILES
1,37%,"CON=C(C(=O)N[C@@H](Cc1ccccc1)[C@H](O)CNC[C@@H](O)[C@H](Cc1ccccc1)NC(=O)OC(C)(C)C)C(C)(C)C [Compound 296, [1S-[1R*,2S*(2S*,3R*)]]-[2-Hydroxy-3-[[2-hydroxy-3-[[2-(methoxyimino)-3,3-dimethyl-1-oxobutyl]amino]-4-phenylbutyl]amino]-1-(phenylmethyl)propyl]carbamic acid, 1,1-dimethylethyl ester]"
2,97%,"CC(C)(C)OC(=O)N[C@@H](Cc1ccccc1)[C@H](O)CNC[C@@H](O)[C@H](Cc1ccccc1)NC(=O)C1(O)CCCCC1(C)C (single isomer, unassigned; isomer a) [Compound 361, [1S-[1R*,2S*(2S*,3R*)]]-[3-[[3-[[2 , 2-Dimethyl-1-hydroxycyclohexyl)carbonyl]amino]-2-hydroxy-4-phenylbutyl]amino]-2-hydroxy-1-(phenylmethyl) propyl]carbamic acid, 1,1-dimethylethyl ester, isomer A]"
3,95%,"CC(C)(C)OC(=O)N[C@@H](Cc1ccccc1)[C@H](O)CNC[C@@H](O)[C@H](Cc1ccccc1)NC(=O)[C@H](O)c1ccccc1 [Compound 377, [1S-[1R*,2S*[2S*, 3R*(S*)]]]-[3-[[3-[2-Hydroxy-1-oxo-2-phenylethyl)amino]-2-hydroxy-4-phenylbutyl]amino]-2-hydroxy-1-(phenylmethyl)propyl]carbamic acid, 1-dimethylethyl ester]"
4,84%,"CC(C)(C)OC(=O)N[C@@H](Cc1ccccc1)[C@H](O)CNC[C@@H](O)[C@H](Cc1ccccc1)NC(=O)C(N)C(F)(F)F (stereo partly drawn) [Compound 329, [1S-[1R*,2S*(2S*,3R*)]]-[3-[[3-[[(1-Amino-2,2,2-trifluoroethyl)carbonyl]amino]-2-hydroxy-4-phenylbutyl]amino]-2-hydroxy-1-(phenylmethyl)propyl]carbamic acid, 1,1-dimethylethyl ester]"
5,96%,"C=Cc1ccccc1C[C@H](NC(=O)OC(C)(C)C)[C@H](O)CNC[C@@H](O)[C@H](Cc1ccccc1)NC(=O)OC(C)(C)C [Compound 370, [1S-[1R*,2S*(2S*, 3R*)]]-[3-[[3-[[(1,1-Dimethylethoxy)carbonyl]amino]-2-hydroxy-4-(2-ethenylphenyl)butyl]amino]-2-hydroxy-1-(phenylmethyl)propxyl]carbamic acid, 1.1-dimethylethyl ester]"
6,85%,"CC(C)(C)OC(=O)N[C@@H](Cc1ccccc1)[C@H](O)CNC[C@@H](O)[C@H](Cc1ccccc1)NC(=O)O[C@@H]1COC[C@H]1O [Compound 317, [1S-(1R*,2S*), (3R-trans)l-[Iminobis[2-hydroxy-1-(phenylmethyl)-3,1-propanediyl]]bis[carbamic acid], 4-hydroxy-3-tetrahydrofuranyl 1,1-dimethylethyl ester]"

# Same assay, conditions: pH 5.5, read-out: HIV Protease % Inhibition at 10 μM
row,inhibition at 10 µM,SMILES
1,73%,"CC(C)(C)COC(=O)N[C@@H](Cc1ccccc1)[C@H](O)CNC[C@@H](O)[C@H](Cc1ccccc1)NC(=O)OCC(C)(C)C [Compound 139, [1S-(1R*,2S*)]-[Iminobis[2-hydroxy-1-(phenylmethyl)-3,1-propanediyl]]biscarbamic acid, bis(2,2-dimethylpropyl)ester]"
2,98%,"CN(C)C(=O)OCCOc1ccc(C[C@H](NC(=O)OC(C)(C)C)[C@H](O)CNC[C@@H](O)[C@H](Cc2ccccc2)NC(=O)OC(C)(C)C)cc1 [Compound 372, [1S-[1R*,2S*(2S*, 3R*)[[-]3-]]4-]4-[2-[[(Dimethylamino)carbonyl]oxy]ethoxyl]phenyl]-3-[[(1,1-dimethylethoxy)carbonyl]amino]-2-hydroxybutyl]amino]-2-hydroxy-1-(phenylmethyl) propyl]carbamic acid]"
